In patent EP4729516A1, “S[…] DERIVATIVE, INTERMEDIATE, PREPARATION METHOD THEREFOR AND USE THEREOF” (Jiangsu NHWA Pharmaceutical Co., Ltd, priority 2023, dated 2024):
Structures can show the parent of a compound that is named as a salt. Where two headings read alike, the source gives them in different places.

Legend:
[1] = target: T1, α2A adrenoceptor (Homo sapiens, UniProt P08913); assay: Agonist screening mode cAMP assay, 293-α2A cells; format: cell-based; conditions: for agonistic activity on the α2A receptor / agonistic activity α1A/2A: in words, compared with dexmedetomidine hydrochloride; for Function α1A/2A: ratio of α1A to α2A EC50
T1 construct: host or cells: 293
T1 sequence (P08913 1-465): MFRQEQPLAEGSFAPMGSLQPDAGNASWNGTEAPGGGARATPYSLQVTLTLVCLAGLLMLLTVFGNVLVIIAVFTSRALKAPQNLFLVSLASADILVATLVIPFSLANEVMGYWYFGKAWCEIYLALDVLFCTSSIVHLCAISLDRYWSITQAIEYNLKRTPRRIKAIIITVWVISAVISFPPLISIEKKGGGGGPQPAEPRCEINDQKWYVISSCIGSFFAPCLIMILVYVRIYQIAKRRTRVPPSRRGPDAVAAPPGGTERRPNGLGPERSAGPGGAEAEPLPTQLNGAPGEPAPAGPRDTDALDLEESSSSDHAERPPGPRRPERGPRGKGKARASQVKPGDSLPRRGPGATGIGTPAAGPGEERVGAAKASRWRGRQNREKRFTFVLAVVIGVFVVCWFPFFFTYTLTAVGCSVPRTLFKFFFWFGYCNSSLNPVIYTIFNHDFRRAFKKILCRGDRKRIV
Experimental: The cells were centrifuged at 1000 rpm for 5 min, and the supernatant was discarded. 3 mL of PBS was added, and the mixture was gently pipetted to be mixed well. The cells were centrifuged again at 1000 rpm for 5 min, and the supernatant was discarded. The cells were resuspended in the 1× Stimulation buffer and counted using a Countstar cell counter, and the cell density was adjusted to 4 × 10^5 cells/mL for later use. • (4) Cell addition: The cell suspension was added to assay plates at 5 µL/well (i.e., about 2000 cells/well). • (5) Compound addition: The compound diluted with the Stimulation buffer was added to the assay plates described above at 4 µL/well. • (6) Reaction and incubation: After gentle shaking, the assay plates were incubated at 37 °C for 20 min. • (7) Agonist Forskolin addition: A 10× adenylate cyclase agonist (Forskolin with a final concentration of 1 µM) solution was added at 1 µL/well. • (8) Reaction and incubation: After gentle shaking, the assay plates were incubated at 37 °C for 45 min. • (9) Detection reagent addition: cAMP-cryptate and Anti-cAMP-d2 were separately diluted according to a ratio of 1:20 with Lysis & detection buffer in the Cisbio cAMP-Gi detection kit, and the diluted cAMP-cryptate and Anti-cAMP-d2 described above were separately added to the assay plate at 5 µL/well. After shaking, the assay plates were left to stand at room temperature for 60 min. • (10) Experimental readings: The plate was read on Envision, readings from the 665 nm and 615 nm channels were taken, and the ratio of 665 nm/615 nm readings was calculated.

[2] = test system: Male SD rats; assay: Fluctuations in blood pressure and heart rate after administration; format: in vivo; conditions: for maximum decrease rates of HR / recovery of HR / maximum increase rates of MAP: compared with dexmedetomidine hydrochloride; for HR decrease Maximum decrease rate / MAP decrease Maximum decrease rate / MAP increase Maximum increase rate: dose as in Test Example 3, within 90 min; for decreases in MAP: no significant decreases greater than the stated value
Experimental: Male SD rats, weighing 250-300 g, with 4 rats per group, were maintained under general anesthesia by isoflurane inhalation. Femoral artery cannulation was performed, and blood pressure and heart rate were monitored using a Powerlab data acquisition and analysis system. 30 min after the baseline values stabilized, the baseline mean arterial pressure (MAP0) and baseline heart rate (HR0) were measured. The rats were given a solution of each compound in normal saline via tail vein injection (the dose of each compound was the same as in Test Example 3, with rapid intravenous injection over 10 s). Blood pressure and heart rate were continuously recorded for 90 min. MAP^+ (the difference between the maximum mean arterial pressure (MAPmax) and MAP0), MAP^-(the difference between the minimum mean arterial pressure (MAPmin) and MAP0), and HR^- (the difference between the minimum heart rate (HRmin) and HR0) within 90 min were calculated. For calculation, the maximum increase rate of mean arterial pressure = MAP^+/MAP0 × 100%; the maximum decrease rate of mean arterial pressure = MAP^-/MAP0 × 100%; and the maximum decrease rate of heart rate = HR^-/HR0 × 100%.

[3] = EC50, cAMP-Gi, 293-α2A cells, Forskolin 1 µM, read-out: Function α2A
[4] = isoflurane-anesthetized male SD rats, tail vein injection, dose as in Test Example 3
[5] = isoflurane-anesthetized male SD rats, tail vein injection

Row | Structure (SMILES) | EC50 [1, 3] [nM] | agonistic activity on the α2A receptor [1] | Function α1A/2A [1] | agonistic activity α1A/2A [1] | EC50 [1] [nM] | maximum decrease rates of HR ([2]; in words, rats) | recovery of HR ([2]; in words, rats) | HR decrease Duration [2, 4] [min] | MAP increase Duration [2, 4] [min] | HR decrease Maximum decrease rate [2, 5] [%] | MAP decrease Maximum decrease rate [2, 5] [%] | MAP increase Maximum increase rate [2, 5] [%] | decreases in MAP ([2]; rats) [%] | maximum increase rates of MAP ([2]; in words, rats) | change in MAP after administration ([2]; in words, initial increase followed by a decrease, rats) | MAP decrease Duration [2, 4] [min] | sustained reductions in MAP and HR ([2]; rats, recording for 90 min) [min]
1 | c1cc2c(c(Cc3c[nH]cn3)c1)SCCC2 [Compound 1, 4-[1-(Thiochroman-8-yl)methyl]-1H-imidazole] | 1.28 | comparable | 2.5 |  |  |  |  |  |  |  |  |  |  |  |  |  | 
2 | CC(c1c[nH]cn1)c1cccc2c1SCCC2 (stereo not drawn) [Compound 2, 4-(1-[Thiochroman-8-yl)ethyl]-1H-imidazole] | 0.53 | superior | 10.1 | comparable |  |  |  |  |  |  |  |  |  |  |  |  | 
3 | CC(c1c[nH]cn1)c1cccc2c1CC2 (stereo not drawn) [Compound 3, 4-(1-(Bicyclo[4.2.0]octa-1(6),2,4-trien-2-yl)ethyl)-1H-imidazole] |  | comparable | 18.3 | superior | 3.12 |  |  |  |  |  |  |  |  |  |  |  | 
4 | CC(c1c[nH]cn1)c1cccc2c1CCCC2 (stereo not drawn) [Compound 4, 4-(1-(5,6,7,8-Tetrahydronaphthalen-1-yl)ethyl)-1H-imidazole] |  | comparable | 7.0 | comparable | 3.57 |  |  |  |  |  |  |  |  |  |  |  | 
5 | CC(c1c[nH]cn1)c1cccc2c1C=CC2 (stereo not drawn) [Compound 8, 4-[1-(1H-Inden-4-yl)ethyl]-1H-imidazole] |  | superior | 23.9 | superior | 0.91 | lower | faster | 60 | 2 | 24.9±10.8 | 7.1±4.1 | 32.0±10.5 | ≤ 10 |  |  |  | 
6 | CC(c1c[nH]cn1)c1cccc2c1OCC2 (stereo not drawn) [Compound 10, 4-[1-(2,3-Dihydrobenzofuran-7-yl)ethyl]-1H-imidazole] |  | comparable | 5.2 | comparable | 4.63 | lower | faster | 30 | 2 | 24.2±5.7 | 7.9±7.4 | 17.3±5.0 | ≤ 10 | lower |  |  | 
7 | C[C@H](c1c[nH]cn1)c1cc(F)cc2c1C=CC2 [Compound 11-b, 4-[(1S)-1-(6-fluoro-1H-inden-4-yl)ethyl]-1H-imidazole] |  | comparable | 4.0 | comparable | 9.18 | lower | faster | 60 | 2 | 31.2±3.19 | 6.7±4.02 | 24.1±4.96 | ≤ 10 | lower |  |  | 
8 | CC(c1c[nH]cn1)c1cccc2c1C=CC2(C)C (stereo not drawn) [Compound 17, 4-[1-(1,1-Dimethyl-1H-inden-4-yl)ethyl]-1H-imidazole] |  |  | 3.2 | comparable | 32 |  |  |  |  |  |  |  |  |  |  |  | 
9 | C[C@H](c1c[nH]cn1)c1cccc2c1CCC2 [Compound 31-b, (S)-4-[1-(2,3-dihydro-1H-inden-4-yl)ethyl]-1H-imidazole] |  | comparable | 1.8 | comparable | 4.46 | lower | faster | 60 | 2 | 30.2±7.7 | 5.3±4.6 | 24.0±11.1 | ≤ 10 | lower |  |  | 
10 | CC1Cc2cccc(C(C)c3c[nH]cn3)c2O1 (stereo not drawn) [Compound 32, 4-[1-(2-Methyl-2,3-dihydrobenzofuran-7-yl)ethyl]-1H-imidazole] |  |  | 0.0 |  | 353 |  |  |  |  |  |  |  |  |  |  |  | 
11 | C[C@H](c1c[nH]cn1)c1cc(F)cc2c1C(=O)CC2 [Compound 38-b, (S)-7-(1-(1H-imidazol-4-yl)ethyl)-5-fluoro-2,3-dihydro-1H-inden-1-one] | 13.2 |  | 0.7 |  |  |  |  |  |  |  |  |  |  |  |  |  | 
12 | Cc1cccc([C@H](C)c2cnc[nH]2)c1C [Dexmedetomidine hydrochloride, reference compound] |  |  |  |  |  |  |  | 90 | 2 | 33.8±5.3 | 16.5±14.6 | 27.7±4.1 |  |  | biphasic change in MAP | 90 | 90
